Laboratory results published in ChEMBL document CHEMBL3217753, “Discovery of selective 2,4-diaminopyrimidine-based photoaffinity probes for glyoxalase I” (Medchemcomm, 2014).
Calls of active or inactive are those of the source. No cut-off for these calls is given here.

What was measured:
[1] = system: HeLa; assay: Ratio of GI50 for human HeLa cells in presence of 5 mM glucose to GI50 for human HeLa cells in presence of 25 mM glucose; format: functional
[2] = system: A549; assay: Growth inhibition of human A549 cells after 48 hrs by CellTiter-Glo assay in presence of 5 mM glucose; format: functional; details: A549, 48 h
[3] = system: A549; assay: Growth inhibition of human A549 cells after 48 hrs by CellTiter-Glo assay in presence of 25 mM glucose; format: functional; details: A549, 48 h
[4] = system: HeLa; assay: Growth inhibition of human HeLa cells after 48 hrs by CellTiter-Glo assay in presence of 5 mM glucose; format: functional
[5] = system: HeLa; assay: Growth inhibition of human HeLa cells after 48 hrs by CellTiter-Glo assay in presence of 25 mM glucose; format: functional
[6] = system: NCI-H522; assay: Growth inhibition of human NCI-H522 cells after 48 hrs by CellTiter-Glo assay in presence of 5 mM glucose; format: functional; details: NCI-H522, 48 h
[7] = system: NCI-H522; assay: Growth inhibition of human NCI-H522 cells after 48 hrs by CellTiter-Glo assay in presence of 25 mM glucose; format: functional; details: NCI-H522, 48 h
[8] = target: T1, Lactoylglutathione lyase (Homo sapiens, UniProt Q04760); assay: Inhibition of recombinant GLO-1 (unknown origin) assessed as S-D-lactoylglutathione formation preincubated for 1 hr followed by methylglyoxal and GSH addition measured after 9 mins by spectrophotometric analysis
Target sequence in this assay (Q04760 whole entry): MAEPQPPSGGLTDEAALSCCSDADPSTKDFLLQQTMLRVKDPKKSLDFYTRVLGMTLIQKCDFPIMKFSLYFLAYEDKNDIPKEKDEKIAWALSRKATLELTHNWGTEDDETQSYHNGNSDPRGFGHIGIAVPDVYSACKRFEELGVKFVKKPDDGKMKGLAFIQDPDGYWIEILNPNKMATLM

[9] = target: T1, Lactoylglutathione lyase; assay: Competitive binding affinity to human recombinant GLO-1 at 50 uM in presence of N-(4-(4-(5-fluoro-4-(2-(methylsulfonamido)phenylamino)pyrimidin-2-ylamino)benzoyl)phenyl)-5-((3aS,4S,6aR)-2-oxohexahydro-1H-thieno[3,4-d]imidazol-4-yl)pentanamide
Target sequence in this assay (Q04760 2-184 limits assumed): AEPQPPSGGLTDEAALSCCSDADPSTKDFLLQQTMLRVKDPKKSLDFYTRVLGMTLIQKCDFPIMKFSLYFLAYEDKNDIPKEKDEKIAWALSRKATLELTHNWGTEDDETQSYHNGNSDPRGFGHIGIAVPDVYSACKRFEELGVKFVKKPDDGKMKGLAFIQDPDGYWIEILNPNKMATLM

[10] = target: T1, Lactoylglutathione lyase; assay: (§1) Competitive binding affinity to GLO-1 in HEK293T cell lysate at 50 uM after overnight incubation followed by UV-irradiation for 1 hr by Western blotting analysis in presence of N-(4-(4-(5-fluoro-4-(2-(methylsulfonamido)phenylamino)pyrimidin-2-ylamino)benzoyl)phenyl)-5-((3aS,4S,6aR)-2-oxohexahydro-1H-thieno[3,4-d]imidazol-4-yl)pentanamide; format: cell-based; details: HEK-293T
Target sequence in this assay (Q04760 2-184 limits assumed): as above

[11] = target: T1, Lactoylglutathione lyase; assay: as §1, with “pull-down assay” for “Western blotting analysis”; format: cell-based; details: HEK-293T
Target sequence in this assay (Q04760 2-184 limits assumed): as above

[12] = target: T1, Lactoylglutathione lyase; assay: Binding affinity to GLO-1 in live HEK293T cells by pull-down assay; format: cell-based; details: HEK-293T
Target sequence in this assay (Q04760 2-184 limits assumed): as above

[13] = target: T1, Lactoylglutathione lyase; assay: Competitive binding affinity to dimeric form of GLO-1 in HEK293T cells at 20 uM incubated for 6 hrs followed by UV-irradiation for 1 hr by fluorescence assay in presence of N-(4-(4-(5-fluoro-4-(2-(methylsulfonamido)phenylamino)pyrimidin-2-ylamino)benzoyl)phenyl)hex-5-ynamide; format: cell-based; details: HEK-293T
Target sequence in this assay (Q04760 2-184 limits assumed): as above

[14] = target: T1, Lactoylglutathione lyase; assay: Competitive binding affinity to monomeric form of GLO-1 in HEK293T cells at 20 uM incubated for 6 hrs followed by UV-irradiation for 1 hr by fluorescence assay in presence of N-(4-(4-(5-fluoro-4-(2-(methylsulfonamido)phenylamino)pyrimidin-2-ylamino)benzoyl)phenyl)hex-5-ynamide; format: cell-based; details: HEK-293T
Target sequence in this assay (Q04760 2-184 limits assumed): as above

[15] = target: T1, Lactoylglutathione lyase; assay: Competitive binding affinity to dimeric form of GLO-1 in HEK293T cell lysate at 20 uM after overnight incubation followed by UV-irradiation for 1 hr by fluorescence assay in presence of N-(4-(4-(5-fluoro-4-(2-(methylsulfonamido)phenylamino)pyrimidin-2-ylamino)benzoyl)phenyl)hex-5-ynamide; format: cell-based; details: HEK-293T
[16] = target: T1, Lactoylglutathione lyase; assay: Competitive binding affinity to monomeric form of GLO-1 in HEK293T cell lysate at 20 uM after overnight incubation followed by UV-irradiation for 1 hr by fluorescence assay in presence of N-(4-(4-(5-fluoro-4-(2-(methylsulfonamido)phenylamino)pyrimidin-2-ylamino)benzoyl)phenyl)hex-5-ynamide; format: cell-based; details: HEK-293T
[17] = system: HeLa; assay: Induction of apoptosis in human HeLa cells under high glucose condition assessed as nuclear fragmentation at 5 uM after 24 hrs by DAPI staining-based fluorescence microscopic analysis; format: functional, cell-based
[18] = system: HeLa; assay: Induction of apoptosis in human HeLa cells under high glucose condition assessed as caspase-3 degradation at 1 to 50 uM after 24 hrs by Western blotting analysis; format: functional, cell-based
[19] = target: T1, Lactoylglutathione lyase; assay: Inhibition of GLO-1 in human HeLa cells under high glucose condition assessed as increase in methylglyoxal level at 5 uM after 24 hrs by spectrophotometric analysis; format: cell-based
[20] = target: T1, Lactoylglutathione lyase; assay: Competitive binding affinity to GLO-1 in human HeLa cells at 100 uM incubated for 6 hrs followed by UV-irradiation for 1 hr by fluorescence microscopic analysis in presence of N-(4-(4-(5-fluoro-4-(2-(methylsulfonamido)phenylamino)pyrimidin-2-ylamino)benzoyl)phenyl)hex-5-ynamide; format: cell-based

SMILES | GI50 [2] | GI50 [3] | GI50 [4] | GI50 [5] | GI50 [6] | GI50 [7] | IC50 [8] | Activity [9] | Activity [10] | Activity [11] | Activity [12] | Activity [13] | Activity [14] | Activity [15] | Activity [16] | inhibition [19] | Activity [20] | Ratio IC50 [1] | Activity [17] | Activity [18]
CS(=O)(=O)Nc1ccccc1Nc1nc(Nc2ccc(C(=O)OCc3ccccc3)cc2)ncc1F | > 50 µM | > 50 µM | 61.9 µM | 37 µM | 40.2 µM | 16.5 µM | 0.0513 µM |  |  |  |  |  |  |  |  |  |  | 2.6 |  | 
CS(=O)(=O)Nc1ccccc1Nc1nc(Nc2ccc(C(=O)c3ccc(NC(=O)CCCC[C@@H]4SC[C@@H]5NC(=O)N[C@@H]54)cc3)cc2)ncc1F |  |  |  |  |  |  |  | Active | Active | Active | inactive |  |  |  |  |  |  |  |  | 
CS(=O)(=O)Nc1ccccc1Nc1nc(Nc2ccc(Cl)cc2)ncc1F | > 50 µM | > 50 µM | 61 µM | 23.2 µM | 25 µM | 12.2 µM | 0.0539 µM |  |  |  |  |  |  |  |  |  |  | 2.6 |  | 

Further lines, with some results ahead:

GI50 [2] | GI50 [3] | GI50 [4] | GI50 [5] | GI50 [6] | GI50 [7] | IC50 [8] | Activity [9] | Activity [10] | Activity [11] | Activity [12] | Activity [13] | Activity [14] | Activity [15] | Activity [16] | inhibition [19] | Activity [20] | SMILES | Ratio IC50 [1] | Activity [17] | Activity [18]
37.4 µM | 26.9 µM | 14 µM | 7.3 µM | 8.3 µM | 7.3 µM | 0.0458 µM |  |  |  |  |  |  |  |  |  |  | CS(=O)(=O)Nc1ccccc1Nc1nc(Nc2ccc(Oc3ccccc3)cc2)ncc1F | 2.6 |  | 
15.5 µM | 13.3 µM | 5.7 µM | 4.6 µM | 2.7 µM | 2.9 µM | 0.0264 µM |  |  |  |  | Active | Active | Active | Active | Active | Active | C#CCCCC(=O)Nc1ccc(C(=O)c2ccc(Nc3ncc(F)c(Nc4ccccc4NS(C)(=O)=O)n3)cc2)cc1 |  | Active | Active
